Series [1] deals with J774 cells infected with P. aeruginosa strain PAK. As to the kind of experiment: cells. It is filed as cell-based, Pseudomonas aeruginosa. The note with it: for viability at 25 µM / viability at 50 µM / viability at 100 µM / viability at 200 µM: Pseudomonas aeruginosa, uninfected control = 100%, infected control = 0%; for viability at 25 µM: J774, compound 25 µM, read-out: Viability Assay (% of Uninfected Control) 25 µM; for viability at 50 µM: J774, compound 50 µM, read-out: Viability Assay (% of Uninfected Control) 50 µM; for viability at 100 µM: J774, compound 100 µM, read-out: Viability Assay (% of Uninfected Control) 100 µM; for viability at 200 µM: J774, compound 200 µM. As to the method: (§1) The cell viability assay was performed essentially as described before. J774 cells were seeded in 96-well micro-titer plates (Nunc), 100 µL/well, to a final number of 50,000 cells/well in Dulbecco’s modified Eagle’s medium (DMEM) with glutamax (Merck) supplemented with 10% fetal calf serum (FCS) and 3 µg/mL gentamicin and incubated for 16-18 h. Overnight cultures of the P. aeruginosa strains PAK and PAKpcrV [10] were grown in Luria Broth (LB) on a rotary shaker at 220 rpm at 37 °C. Prior to infection, the bacteria were diluted 1:10 in DMEM + glutamax and incubated for 1 h at 37 °C (shaking). The J774 cells were washed once with PBS, then 30 µL of DMEM with glutamax and 10% FCS supplemented with the potential binders at concentrations of 50, 100, 200, and 400 µM were added to the wells in triplicates. The infection was initiated by adding 30 µL of the diluted bacterial solutions (where the OD600 had been diluted to 0.0008) to each well to initiate infection. This infection results in a final bacterial concentration of OD600 = 0.0004 and a multiplicities of infection (MOI) of approximately 8, with final concentrations of the compounds at 25, 50, 100, and 200 µM in 60 µL of DMEM + glutamax and 5% FCS. In the primary screening, the compounds were run at one concentration (100 µM) in duplicates. As an infection control, the wild-type strain PAK with 1% DMSO was added, and as a positive control, PAKpcrV with 1% DMSO was added into four wells each. After 3 h and 30 min, 10 µL of UptiBlue Viable Cell Counting Kit (Interchime, France) was added to all wells. The infection was followed under the light microscope and the fluorescence (excitation 535 nm and emission 595 nm) was measured at 4, 5, and 6 h in a microplate reader (Synergy™ H4, Biotek). The results were calculated as percentage of living cells compared to uninfected control, where the uninfected control was set to 100% living cells and the infected control was set to 0% living cells. As a control, compounds were added to uninfected cells in a parallel experiment and viability was calculated as above to screen for cell toxicity. A compound was considered toxic if the viability was <80% of the uninfected control after 6 h of incubation and if a visual change of cell morphology was observed by microscopy. Z’ was calculated for each plate to ensure good quality throughout the screening. Only results from plates with a Z’ > 0.4 were counted. Standard deviation was calculated with Gaussian approximation when appropriate and shown as error bars in Figure 3C and Figure 4A.
The T3SS is important for P. aeruginosa infection of eukaryotic cells, and a T3SS activator mutant or a mutant lacking the T3SS tip protein PcrV are not able to infect eukaryotic cells. The macrophage cell line, J774, was infected with the wild-type P. aeruginosa strain PAK, and the potential PcrV binders were added to the wells at a final concentration of 100 µM to screen for inhibition of infection. The T3SS-mediated cytotoxic effect on the eukaryotic cells was measured by using a viability staining method (Uptiblue, Interchim), and the results were measured after 4, 5, and 6 h of infection. The pcrV-mutant (PAKpcrV), which is not able to infect macrophages due to deletion of the PcrV protein, was used as a control.

A further series concerns the target PcrV (Pseudomonas aeruginosa, UniProt G3XD49). As to the kind of experiment: SPR dose-response binding to immobilized PcrV (equilibrium analysis). As to the method: The SPR screening was performed using the ProteOn^TM XPR36 Protein Interaction Array System (Bio-Rad Laboratories Inc., Hercules, CA, USA) with ProteOn GLH sensor chip (Bio-Rad Laboratories Inc., Hercules, CA, USA), and the results were analyzed with the ProteOn Manager software^TM (Bio-Rad Laboratories Inc., Hercules, CA, USA), Excel 2016 (Microsoft Office), and GraphPad Prism 7.04. All SPR experiments were performed at 25 °C. The multichannel module of the ProteOn system was in the vertical position during protein immobilization. The proteins were attached to the surface of a GLH sensor chip via amine coupling chemistry. A buffer scouting was performed to elucidate the optimal binding conditions of PcrV to the GLH sensor chip. First, channels 1–4 on the chip surface were activated using a 1:1 mixture of 40 mM 1-ethyl-3-(3-dimethylaminopropyl)carbodiimide hydrochloride (EDAC) (Bio-Rad Laboratories Inc., Hercules, CA, USA) and 10 mM N-hydroxysulfosuccinimide (sulfo-NHS, Bio-Rad Laboratories Inc., Hercules, CA, USA) for 300 s at 30 µL/min. Next, the proteins PcrV (33,398.6 Da, 6.37 mg/mL) was diluted in 10 mM NaOAc (pH 4, 4.5, and 5) to 0.05 mg/mL. PcrV was immobilized in channel 1–3 for 540 s at 30 µL/min. Channel 4 was flushed with 10 mM NaOAc (pH 5) for 540 s at 30 µL/min. As deactivating agent, a 1:1 mixture of 1 M ethanolamine and milli-Q filtered water was used. The deactivating solution was injected over all four channels for 300 s at 30 µL/min. Phosphate buffered saline with Tween (PBST; 10 mM phosphate buffer pH 7.4, 140 mM NaCl, 2.7 mM KCl, and 0.05% Tween 20) was used as the running buffer. The final amount of immobilized protein was measured in resonance units (RU) relative to the signal of the baseline prior activation. […] Immobilization of PcrV diluted in sodium acetate of pH 4.5 in one channel and of pH 5 in one channel were used in the beginning of the screening procedure (for plate 1–26). Since no difference was found between the two pH values, the PcrV protein was diluted in sodium acetate at pH 5 only (in two channels) from plate 27 and the rest of the screen. The immobilization procedure for the screening was performed as described above with the addition that the control protein carbonic anhydrase isoenzyme II from bovine erythrocytes (CAII, Sigma-Aldrich, article number 2522) was immobilized in one channel that was activated and deactivated as described above. CAII (1 mg/mL in PBS) was deactivated when diluted in 10 mM sodium acetate (pH 4) to 0.05 mg/mL. Immobilization level of the deactivated CAII was 18,000 RU. Deactivated CAII was used as a control protein according to the recommendations by the ProteOn manufacturer (Bio-Rad Laboratories Inc., Hercules, CA, USA). As running buffer, we employed PBS (pH 7.4, 0.05% Tween 20).
First, the PcrV protein was immobilized in two channels as described above while keeping a blank channel which was activated and deactivated as described above. The multichannel module of the ProteOn system was in horizontal position during the small molecule interaction studies. They were serially diluted to (400,) 200, 100, 50, 25, 12.5, 6.25, and (3.125); or 100, 50, 25, and 12.5 µM; or 100, 66.7, 44.4, 29.6, 19.7, and 13.2 µM in PBST (0.05% Tween 20) with a total concentration of 5% DMSO in 96-well plates. The running buffer was PBST (0.05% Tween 20) containing 5% DMSO. The analytes were injected at a flowrate of 100 µL/min, contact time was 60 s, and dissociation time was 60–120 s. Solvent correction was performed continuously during the experiments to account for bulk response of DMSO. The data was then baseline-aligned, processed by channel referencing with the blank channel, and solvent-corrected. The equilibrium dissociation constant (KD) values were determined from equilibrium analysis in the ProteOn Manager software^TM. Solubility problems frequently hampered KD determination since the small molecules could not always be dissolved in concentrations high enough to reach a plateau. […]

The next series deals with uninfected J774 cells. As to the kind of experiment: Cell toxicity control: compounds added to uninfected J774 cells. In kind it is cell-based. The note with it: 6 h incubation; for Toxicity towards eukaryotic cells, 200 µM: compound 200 µM. As to the method: as §1
Setting [2] is: KD ± standard error of KD (Table S1), single experiment, standard error from ProteOn Manager software.
Where [3] appears, read: SPR KD, equilibrium analysis, mean ± SD of three or more independent experiments, individual values where n < 3, 25 °C, PBST 5% DMSO.

Each structure is given as a SMILES string. Values joined by “and” are separate entries in the source; they are usually repeats but may differ in a detail not shown here. Equal entries are not always repeated.

Sequence of PcrV (G3XD49 entry or part of it): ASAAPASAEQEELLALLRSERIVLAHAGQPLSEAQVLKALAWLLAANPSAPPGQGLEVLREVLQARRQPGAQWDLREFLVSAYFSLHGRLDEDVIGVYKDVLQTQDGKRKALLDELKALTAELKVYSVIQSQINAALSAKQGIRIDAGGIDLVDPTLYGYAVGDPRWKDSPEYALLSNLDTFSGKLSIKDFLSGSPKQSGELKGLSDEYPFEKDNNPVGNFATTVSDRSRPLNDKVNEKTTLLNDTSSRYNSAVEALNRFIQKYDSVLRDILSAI

As a reminder, the viability is a read-out of living cells in per cent, often relative to untreated cells. The term Kd denotes the constant that tells how readily two partners part at equilibrium. A high value points to weaker binding. Turning to `Cc1c(Br)ccc(OCCCc2ccccc2C(=O)O)c1C` [Compound 30], in series [1], the viability at 25 µM worked out at 16%, the viability at 50 µM amounted to 25%, the viability at 100 µM came to 21% and the viability at 200 µM is -16%. Further, the Kd at PcrV (setting [2]) was determined as 149 ± 27 µM. Also, on PcrV (setting [3]), the Kd was 113 ± 31 µM. The “Toxicity towards eukaryotic cells, 200 µM” value in the series on uninfected J774 cells is “b (The compound is toxic^e towards eukaryotic cells, which might affect the results negatively)”.
As for `Cc1c(Br)ccc(OCCCC(=O)N2CCC(C(=O)O)CC2)c1C` [Compound 23], in series [1], the viability at 25 µM turned out to be 17%, the viability at 50 µM worked out at 18%, the viability at 100 µM came to 20% and the viability at 200 µM came out at 9%. On PcrV (setting [2]), this compound displayed a Kd of 94.1 ± 31 µM. The Kd at PcrV (setting [3]) is 94 µM and 103 µM. Also, the “Toxicity towards eukaryotic cells, 200 µM” value in the series with uninfected J774 cells was “b (The compound is toxic^e towards eukaryotic cells, which might affect the results negatively)”.
Turning to `Cc1c(Br)ccc(OCCCCO)c1C` [Compound 28], the Kd on PcrV (setting [3]) is 127 µM and 351 µM. Moreover, the “Toxicity towards eukaryotic cells, 25 µM” value in the series on uninfected J774 cells (compound 25 µM) is “Toxic ^e (<80% viability compared to the DMSO control)”. Moreover, in the series on uninfected J774 cells (compound 50 µM), the “Toxicity towards eukaryotic cells, 50 µM” value is “Toxic ^e (<80% viability compared to the DMSO control)”. For the same compound, the “Toxicity towards eukaryotic cells, 100 µM” value in the series on uninfected J774 cells (compound 100 µM) is reported as “Toxic ^e (<80% viability compared to the DMSO control)”. Further, the “Toxicity towards eukaryotic cells, 200 µM” value in the series on uninfected J774 cells is given as “Toxic ^e (<80% viability compared to the DMSO control)”.
Consider `O=C(O)CCCOc1ccc(Cl)cc1Cl` [Compound 1], for which, in series [1], the viability at 25 µM was 14%, the viability at 50 µM is 12%, the viability at 100 µM amounted to 21% and the viability at 200 µM was found to be 16%. At PcrV (setting [2]), this compound displayed a Kd of 124 ± 53 µM. In addition, at PcrV (setting [3]), the Kd was < 127 µM and 95 µM. In addition, the “Toxicity towards eukaryotic cells, 200 µM” value in the series on uninfected J774 cells is reported as “b (The compound is toxic^e towards eukaryotic cells, which might affect the results negatively)”.
For `Cc1c(Br)ccc(OCCCC(=O)NS(=O)(=O)c2ccccc2)c1C` [Compound 27], in series [1], the viability at 25 µM was 13%, the viability at 50 µM stood at 15%, the viability at 100 µM is 25% and the viability at 200 µM is -6%. The compound further had a Kd at PcrV (setting [2]) of 116 ± 18 µM. The compound also showed a Kd on PcrV (setting [3]) of 118 ± 62 µM. Also, the “Toxicity towards eukaryotic cells, 200 µM” value with uninfected J774 cells was “b (The compound is toxic^e towards eukaryotic cells, which might affect the results negatively)”.
On to `Cc1cc(OCCCC(=O)O)cc(C)c1Br` [Compound 14], for which the “Anti-virulence efficacy in the infection assay (in words)” value in series [1] (25-200 µM) is listed as “as efficacious as or better than H1”. In series [1], the viability at 25 µM came out at 13%, the viability at 50 µM stood at 23%, the viability at 100 µM came to 26% and the viability at 200 µM stood at 32%. This compound also had a Kd on PcrV (setting [2]) of 80.7 ± 30.3 µM. Besides, on PcrV (setting [3]), the Kd is < 150 µM and 148 µM. In addition, the “Rmax (Table S1)” value on PcrV (single experiment) is 78.9.
For `COC(=O)CCCOc1ccc(Br)c(C)c1C` [Compound 29], in series [1], the viability at 25 µM turned out to be 8%, the viability at 50 µM worked out at 12%, the viability at 100 µM is 23% and the viability at 200 µM was determined as 14%. The Kd at PcrV (setting [2]) amounted to 206 ± 77 µM. The affinity at PcrV (setting [3]), expressed as Kd, was 110 ± 83 µM. Moreover, at PcrV (single experiment), the “Rmax (Table S1)” value is on record as 60.
`Cc1c(Br)ccc(OCCCC(=O)N2CCCCC2C(=O)O)c1C` (stereo not shown) [Compound 22]: in series [1], the viability at 25 µM came to 18%, the viability at 50 µM came to 27%, the viability at 100 µM came out at 29% and the viability at 200 µM was found to be 28%. For the same compound, binding at PcrV (setting [2]) was characterised by a dissociation constant (Kd) of 61.5 ± 14.9 µM. Also, the Kd on PcrV (setting [3]) is 62 µM and 77 µM. The “Rmax (Table S1)” value at PcrV (single experiment) is given as 108.6.
Turning to `O=C(O)CCCOc1cc(Cl)ccc1Oc1ccc(Cl)cc1Cl` [Compound 17], in series [1], the viability at 25 µM is 10%, the viability at 50 µM was found to be 3%, the viability at 100 µM is 7% and the viability at 200 µM was -2%. Binding at PcrV (setting [3]) was put at a Kd of 536 µM. Besides, in the series on uninfected J774 cells, the “Toxicity towards eukaryotic cells, 200 µM” value is “b (The compound is toxic^e towards eukaryotic cells, which might affect the results negatively)”.

These data come from paper PMC7824769, “Identification of Small Molecules Blocking the Pseudomonas aeruginosa Type III Secretion System Protein PcrV” (Biomolecules, 2021).
